Target: T1, Dual specificity mitogen-activated protein kinase kinase 5 (Homo sapiens) (UniProt Q13163)
T1 sequence (whole entry): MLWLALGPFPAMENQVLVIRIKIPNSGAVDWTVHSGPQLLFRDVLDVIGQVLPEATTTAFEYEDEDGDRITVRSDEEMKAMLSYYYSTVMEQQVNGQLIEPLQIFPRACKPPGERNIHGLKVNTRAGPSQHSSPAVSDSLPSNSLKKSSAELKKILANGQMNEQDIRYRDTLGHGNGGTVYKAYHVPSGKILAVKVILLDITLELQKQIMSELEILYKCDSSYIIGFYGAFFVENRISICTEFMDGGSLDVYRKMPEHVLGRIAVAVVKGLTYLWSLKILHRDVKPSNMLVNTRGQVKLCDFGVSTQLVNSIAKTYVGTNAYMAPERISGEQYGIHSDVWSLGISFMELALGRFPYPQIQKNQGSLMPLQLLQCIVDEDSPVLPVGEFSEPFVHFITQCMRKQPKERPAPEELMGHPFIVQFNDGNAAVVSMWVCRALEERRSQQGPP
Experiment: Inhibition of MAP2K5 in human HeLa cells lysate at 10 uM pre incubated for 15 mins followed by ADP acyl phosphate probe addition and measured after 10 mins by LC-MS/MS analysis relative to control
Format: subcellular
Settings: time 25.0 min

For `CCOc1cc(N2CCC(O)CC2)ccc1Nc1ncc2c(n1)N(C)c1ccccc1C(=O)N2C`, the inhibition was -9.9%.

— ChEMBL document CHEMBL5661979, “Pharmacological inhibition of BMK1 suppresses tumor growth through promyelocytic leukemia protein” (Cancer Cell, 2010)
